Reference: PubChem BioAssay (NCI)
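Briefly, cells in 96-well plates were exposed to five compound concentrations for 48 h, and endpoints were estimated by linear interpolation. GI50: concentration for 50% inhibition of growth. The concentration for full growth arrest is given as TGI.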

Experiments:
Experiment in all cases: NCI-60 cell line screen, 48 h
[1] = test system: SK-MEL-28 melanoma
[2] = test system: SNB-19 CNS
[3] = test system: COLO 205 colon
[4] = test system: NCI/ADR-RES ovarian
[5] = test system: TK-10 renal
[6] = test system: HT29 colon
[7] = test system: RPMI-8226 leukemia
[8] = test system: A498 renal
[9] = test system: OVCAR-4 ovarian
[10] = test system: NCI-H522 lung

Structure (SMILES) | GI50 [1] [µM] | TGI [1] [µM] | GI50 [2] [µM] | TGI [2] [µM] | GI50 [3] [µM] | TGI [3] [µM] | GI50 [4] [µM] | TGI [4] [µM] | GI50 [5] [µM] | TGI [5] [µM] | GI50 [6] [µM] | TGI [6] [µM] | GI50 [7] [µM] | TGI [7] [µM] | GI50 [8] [µM] | TGI [8] [µM] | GI50 [9] [µM] | TGI [9] [µM] | GI50 [10] [µM] | TGI [10] [µM]
CCOC1Oc2ccc(C)cc2C(=O)/C1=C\Nc1ccc(S(N)(=O)=O)cc1 (configuration not stated) | 14.5 | > 50 | 16.1 | > 50 | 16.8 | 45.3 | 6.14 | 18.5 | 15.7 | > 50 | 15.6 | > 50 | 6.21 | 25.2 | 17 | 46.5 | 15.2 | > 50 | > 50 | > 50
Cc1cc(NN=C(c2ccc(O)cc2)c2ccc(O)cc2)c([N+](=O)[O-])cc1[N+](=O)[O-] | 5.59 | 21.2 |  | 0.935 | 5.87 | 40.5 | 3.75 | > 100 | 4.53 | 37.5 | 5.98 | > 100 | 1.32 | 4.16 | 9.29 | 23.9 | 6.38 | > 100 | 1.08 | 11.4
Cc1nc2ccccc2c(=O)n1/N=C(\N=Nc1cc(Cl)ccc1Cl)c1ccccc1 |  | > 100 |  | > 31.6 |  | > 100 |  | > 100 |  | > 100 |  | > 88.7 |  | > 100 |  | > 100 |  | > 100 |  | 81.7
Nc1ccccc1C#Cc1ccccc1C#Cc1cccs1 | 15.7 | 41 | 29.9 | > 100 |  |  | 16 | 30.7 |  |  | 19.4 | 49 | 14.1 | 40.6 | 15.1 | 29.5 | 31 | > 100 | 18.4 | 49.1
COc1ccc(-c2cc(/C=C/C(=O)c3ccc(N)cc3)[nH]n2)cc1 | 1.87 | 4.01 | 2.29 | 11.6 | 1.85 | 3.45 | 2.86 | 15.5 | 2.81 | 13 | 2.75 | 8.11 | 0.6 | 3.22 | 2.03 | 4.95 | 1.08 | 8.01 | 1.21 | 2.91
O=c1[nH]cnc2n[nH]nc12 |  | > 61.6 |  | > 100 |  | > 100 | 0.472 | > 100 |  | > 100 |  | > 100 |  | > 65.9 |  | > 100 |  | > 84.8 |  | 53.3
OCC(O)C(O)C(O)C(O)c1nnc2c(-c3ccccc3)nc3ccccc3n12 (configuration not stated) | > 100 | > 100 | > 100 | > 100 | 74 | > 100 | 69.2 | > 100 | 29.2 | > 100 | 86.3 | > 100 | 67.2 | > 100 | 38.2 | > 100 | 16 | 96.3 | 64.1 | > 100
N#Cc1cc(S(=O)(=O)Nc2nc3cc(Cl)ccc3o2)c(SCc2ccccc2)cc1Cl | 12.8 | 25.4 | 13.6 | 26.5 | 13 | 25.7 | 13.8 | 26.7 | 14.8 | 28 | 17.3 | 31 | 16.3 | 43 | 11.5 | 23.6 | 15.9 | 35.1 | 11.6 | 25
CC1(C)C2CCC13C(=O)C1OC3(C2)C2C(=O)c3c(ccc4c3ccc3ccccc34)C(=O)C12 (configuration not stated) | > 84.3 | > 100 | > 43.5 | > 100 | > 54 | > 100 | > 46.7 | > 94.8 | > 87.5 | > 100 | > 64.6 | > 100 | 19.2 | > 60 | > 100 | > 100 | 56.1 | > 100 | > 62.1 | > 100
CC[C@H]1OC(=O)[C@H](C)[C@@H](O[C@H]2C[C@@](C)(OC)[C@@H](O)[C@H](C)O2)[C@H](C)[C@@H](O[C@@H]2O[C@H](C)C[C@H](N(C)C)[C@H]2O)[C@](C)(OC)C/C(C)=C2/O[C@@]1(C)C=C2C | 1.89 | 3.32 | 1.7 | 3.13 | 1.68 | 3.69 | 1.77 | 3.57 | 1.72 | 3.32 | 1.83 | 4.14 | 1.9 | 5.14 | 1.75 | 3.59 | 1.85 | 4.22 | 1.72 | 3.63
C#C[C@]1(O)CC[C@H]2[C@@H]3CC=C4c5nc(N)sc5CC[C@]4(C)[C@H]3CC[C@@]21C | 1.9 | 4.67 | 6.2 | 31.1 | 3.66 | 15.8 | 3.19 | 16 | 11.3 | 39.4 | 3.04 | 12.4 | 1.57 | 4.73 | 1.96 | 4.21 | 13.2 | 70.5 | 2.52 | 7.94
O=CN1N=C(c2cccc(Nc3ccnc4cc(Cl)ccc34)c2)CC1c1ccc(Cl)cc1 (configuration not stated) | 5.63 | > 100 | 3.48 | > 100 | 1.39 | 6.67 | 0.759 | 3.94 |  |  | 0.477 | 3.65 | 2.45 | > 100 | 0.832 | 6.18 | 4.13 | > 100 | 0.798 | 70.1
CCCCCC[C@H]1C(=O)O[C@H](C)[C@H](NC(=O)c2cccc(NC=O)c2OC)C(=O)O[C@@H](C)[C@@H]1OC(=O)CCC (tested in a mixture with another compound) | 16.2 | 33.3 |  |  | 12.6 | 26.7 | 8.63 | 34.2 | 13.3 | 29.6 | 5.98 | 45.6 | 12.2 | 37.9 | 10 | 29.7 | 12.7 | 29 | 13 | 34.4
